Measured values as given in US10471020B2, “Nanoparticles with protected interiors, and methods of use thereof” (Universidade de Santiago de Compostela, priority 2016, dated 2019).

Columns and labels:
Caco-2 cells = test: Cytotoxicity study on Caco-2 cells (MTS assay); assay type: cell-based, Human; settings: Caco-2, 2 hour incubation
Procedure: Culture of Caco-2 cells. Caco-2 cells were grown in DMEM high glucose with L-glutamine supplemented with 10% heat inactivated fetal bovine serum, 1% penicillin (100 U/mL), streptomycin (100 micrograms/mL), and 1% NEAA solution.
Cytotoxicity study on Caco-2 cells. Cytotoxicity was determined using a MTS assay as an indicator of cell viability. Cell viability was assessed after the co-incubation of 10,000 Caco-2 cells/well on a 96-well tissue cultured plate (Costar® Corning®) with the aforementioned formulations in dispersion in culture DMEM medium supplemented with 4 mM of glutamine, 100 U/mL of penicillin, 100 microgram/mL of streptomycin and […] heat inactivated fetal bovine serum. […] The EC50 value for the different formulations were calculated from the dataset by non-linear regression analysis using GraphPad Prism.

[1] = tested on: human intestinal tissue (jejunal); test: Toxicity in human intestinal tissue in Ussing chambers (electrophysiology, forskolin response); settings: Ussing chamber
Source text: Toxicity and permeability in human intestinal tissue. Jejunal tissue samples were collected from patients undergoing laparoscopic Roux-en-Y gastric bypass. Patients had given full informed consent. The study has been reviewed and approved by a regional ethical review board. Tissue samples were immediately transferred into a vessel containing cold, oxygenated Krebs-Ringer buffer and quickly transported to the laboratory. Arriving, the epithelium was dissected away from sub-epithelial tissues and mounted in horizontal as well as vertically oriented Ussing chambers with 9 mm openings between the two chambers. The basolateral chamber was filled with glucose containing Krebs-Ringer buffer, while the glucose in the apical chamber was substituted with mannitol. This is to avoid SGLT-induced tight junction opening. […] Electrophysiology of the tissue was monitored throughout the experiment to assure continued tissue viability. […] Viable tissue with oxidative metabolism will form cAMP in response to forskolin leading to an opening of CFTR C1 channels, the response was monitored as changes in potential difference and short-circuit current over the epithelium. The permeability of fluorescently labeled nanoparticles was analyzed in a plate reader and the apparent permeability rate constant (Papp) was calculated.

Row | SMILES | cytotoxicity (Caco-2 cells) | cytotoxicity sequence of tested products (Caco-2 cells) | forskolin response [1]
1 | CC(C)CCC[C@@H](C)[C@H]1CC[C@H]2[C@@H]3CC=C4C[C@@H](OC(=O)N[C@H](CCCNC(=N)N)C(=O)N[C@H](CCCNC(=N)N)C(=O)N[C@H](CCCNC(=N)N)C(=O)N[C@H](CCCNC(=N)N)C(=O)N[C@H](CCCNC(=N)N)C(=O)N[C@H](CCCNC(=N)N)C(=O)N[C@H](CCCNC(=N)N)C(=O)N[C@H](CCCNC(=N)N)C(N)=O)CC[C@]4(C)[C@H]3CC[C@]12C [Chol-R8] | highest cytotoxicity | Chol-R8>C12-R8>ENCPs>diblock or branched PGA-PEG | –
2 | CCCCCCCCCCCC(=O)N[C@H](CCCNC(=N)N)C(=O)N[C@H](CCCNC(=N)N)C(=O)N[C@H](CCCNC(=N)N)C(=O)N[C@H](CCCNC(=N)N)C(=O)N[C@H](CCCNC(=N)N)C(=O)N[C@H](CCCNC(=N)N)C(=O)N[C@H](CCCNC(=N)N)C(=O)N[C@H](CCCNC(=N)N)C(N)=O [Formulation C12-R8] | – | Chol-R8>C12-R8>ENCPs>diblock or branched PGA-PEG | no evident change
